One data set addresses GLP-1R (Homo sapiens, UniProt P43220). As to the kind of experiment: GLP-1R activation: cAMP increase in CHO cells stably expressing GLP-1R. The data set is classed as cell-based. Particulars: read-out: EC50.
The nature of data set [1]: Microsomal stability, human liver microsomes (predicted hepatic clearance). Particulars: predicted from in vitro microsomal stability data.
Setting [2] is: cAMP increase, CHO cells stably expressing GLP-1R, 10 point dose response, 30 minutes incubation.

Where two headings read alike, the source gives them in different places. Bounds are passed on as bounds.

GLP-1R, sequence (P43220 24-463): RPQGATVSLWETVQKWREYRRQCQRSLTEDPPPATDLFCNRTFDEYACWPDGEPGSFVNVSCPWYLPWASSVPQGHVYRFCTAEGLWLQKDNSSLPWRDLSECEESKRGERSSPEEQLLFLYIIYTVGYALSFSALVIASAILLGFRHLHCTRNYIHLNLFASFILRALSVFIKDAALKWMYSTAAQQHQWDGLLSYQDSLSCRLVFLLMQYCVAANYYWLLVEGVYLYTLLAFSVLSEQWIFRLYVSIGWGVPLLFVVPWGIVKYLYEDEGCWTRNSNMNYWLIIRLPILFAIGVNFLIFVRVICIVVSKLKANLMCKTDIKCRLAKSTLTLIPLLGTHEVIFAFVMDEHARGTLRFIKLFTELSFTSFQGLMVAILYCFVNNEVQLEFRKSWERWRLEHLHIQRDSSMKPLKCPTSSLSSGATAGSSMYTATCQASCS

Regarding `O=C(O)c1cc(F)c2nc(Cc3ccc(-c4ccc(F)c(OCc5ccc(C(F)F)cc5F)n4)cc3F)n(CC34CC(CO3)C4)c2c1` [Example 770], the EC50 (as a rule, the concentration giving half of the maximal effect) on GLP-1R (setting [2]) stood at 2.62 nM. In addition, in data set [1], the “Predicted Hepatic Clearance (Pred. Cl.)” value was 1.83 mL/min/kg.

For `O=C(O)c1ccc2nc(Cc3ccc(-c4cccc(OCc5ccc(Cl)cc5F)n4)c(F)c3)n(CC3(CF)CC3)c2c1` [Example 535, 2-(4-(6-((4-chloro-2-fluorobenzyl)oxy)pyridin-2-yl)-3-fluorobenzyl)-1-((1-(fluoromethyl)cyclopropyl)methyl)-1H-benzo[d]imidazole-6-carboxylic acid], the EC50 on GLP-1R (setting [2]) was 0.66 nM. Also, in data set [1], the “Predicted Hepatic Clearance (Pred. Cl.)” value was 4.17 mL/min/kg.

In the case of `CC(C)(C#N)Cn1c(Cc2ccc(-c3cccc(OCc4ccc(C#N)cc4F)n3)cc2F)nc2ccc(C(=O)O)cc21` [Example 14, 2-(4-(6-((4-cyano-2-fluorobenzyl)oxy)pyridin-2-yl)-2-fluorobenzyl)-1-(2-cyano-2-methylpropyl)-1H-benzo[d]imidazole-6-carboxylic acid], the EC50 at GLP-1R (setting [2]) was found to be 3.14 nM. The “Predicted Hepatic Clearance (Pred. Cl.)” value in data set [1] was 5 mL/min/kg.

As for `N#Cc1ccc(COc2cccc(-c3ccc(Cc4nc5ccc(C(=O)O)cc5n4CC4(O)COC4)c(F)c3)n2)c(F)c1` [Example 316, 2-(4-(6-((4-cyano-2-fluorobenzyl)oxy)pyridin-2-yl)-2-fluorobenzyl)-1-((3-hydroxyoxetan-3-yl)methyl)-1H-benzo[d]imidazole-6-carboxylic acid], the half-maximal effective concentration (EC50) at GLP-1R (setting [2]) turned out to be 14 nM. In data set [1], the “Predicted Hepatic Clearance (Pred. Cl.)” value was 4.67 mL/min/kg.

As to `N#Cc1ccc(COc2cccc(-c3cc(F)c(Cc4nc5ccc(C(=O)O)cc5n4CC45CCC(CO4)C5)cc3F)n2)c(F)c1` (stereo not shown) [Example 738], at GLP-1R (setting [2]), the EC50 stood at 1.87 nM. The “Predicted Hepatic Clearance (Pred. Cl.)” value in data set [1] is 9.33 mL/min/kg.

As to `N#Cc1ccc(COc2cccc(-c3ccc(Cc4nc5ccc(C(=O)O)cc5n4CCOC(F)F)c(F)c3)n2)c(F)c1` [Example 324, 2-(4-(6-((4-cyano-2-fluorobenzyl)oxy)pyridin-2-yl)-2-fluorobenzyl)-1-(2-(difluoromethoxy)ethyl)-1H-benzo[d]imidazole-6-carboxylic acid], the EC50 on GLP-1R (setting [2]) amounted to 5.22 nM. For the same compound, the “Predicted Hepatic Clearance (Pred. Cl.)” value in data set [1] was 2.83 mL/min/kg.

As for `N#Cc1ccc(COc2ccnc(-c3cc(F)c(Cc4nc5c(F)cc(C(=O)O)cc5n4C[C@@H]4CCO4)cc3F)n2)c(F)c1` [Example 778], the EC50 at GLP-1R (setting [2]) was 0.13 nM. Further, in data set [1], the “Predicted Hepatic Clearance (Pred. Cl.)” value is 3.67 mL/min/kg.

In the case of `CC(=O)N1CC2CC1(Cn1c(Cc3cc(F)c(-c4cccc(OCc5ccc(C#N)cc5F)n4)cc3F)nc3ccc(C(=O)O)cc31)C2` [Example 849, 1-((2-acetyl-2-azabicyclo[2.1.1]hexan-1-yl)methyl)-2-(4-(6-((4-cyano-2-fluorobenzyl)oxy)pyridin-2-yl)-2,5-difluorobenzyl)-1H-benzo[d]imidazole-6-carboxylic acid], the EC50 on GLP-1R amounted to 14.2 nM. Moreover, in data set [1], the “Predicted Hepatic Clearance (Pred. Cl.)” value is 5.33 mL/min/kg.

`N#Cc1ccc(COc2cccc(-c3ccc(Cc4nc5ccc(C(=O)O)cc5n4Cc4cn[nH]c4)c(F)c3)n2)c(F)c1` [Example 491, 1-((1H-pyrazol-4-yl)methyl)-2-(4-(6-((4-cyano-2-fluorobenzyl)oxy)pyridin-2-yl)-2-fluorobenzyl)-1H-benzo[d]imidazole-6-carboxylic acid]: the EC50 at GLP-1R (setting [2]) came out at 19.4 nM. Further, the “Predicted Hepatic Clearance (Pred. Cl.)” value in data set [1] was 12.7 mL/min/kg.

`N#Cc1ccc(COc2cccc(-c3ccc(Cc4nc5ccc(C(=O)O)cc5n4CC4(C(F)F)CC4)cc3F)n2)c(F)c1` [Example 528, 2-(4-(6-((4-cyano-2-fluorobenzyl)oxy)pyridin-2-yl)-3-fluorobenzyl)-1-((1-(difluoromethyl)cyclopropyl)methyl)-1H-benzo[d]imidazole-6-carboxylic acid]: the EC50 on GLP-1R (setting [2]) was found to be 0.45 nM. For the same compound, the “Predicted Hepatic Clearance (Pred. Cl.)” value in data set [1] was 7.5 mL/min/kg.

`COCCn1c(Cc2ccc(-c3cccc(OCc4ccc(C#N)cc4F)n3)cc2-c2ccccc2)nc2ccc(C(=O)O)cc21` [Example 184, 2-((5-(6-((4-cyano-2-fluorobenzyl)oxy)pyridin-2-yl)-[1,1′-biphenyl]-2-yl)methyl)-1-(2-methoxyethyl)-1H-benzo[d]imidazole-6-carboxylic acid]: the EC50 on GLP-1R (setting [2]) was 369 nM. For the same compound, the “Predicted Hepatic Clearance (Pred. Cl.)” value in data set [1] was below 1.83 mL/min/kg.

In the case of `COCCn1c(Cc2ccc(-c3cccc(OCc4ccc(C#N)cc4F)n3)cc2C)nc2ccc(C(=O)O)cc21` [Example 59, 2-(4-(6-((4-cyano-2-fluorobenzyl)oxy)pyridin-2-yl)-2-methylbenzyl)-1-(2-methoxyethyl)-1H-benzo[d]imidazole-6-carboxylic acid], the concentration giving a half-maximal response (EC50) on GLP-1R (setting [2]) turned out to be 5.6 nM. Also, the “Predicted Hepatic Clearance (Pred. Cl.)” value in data set [1] was below 1.83 mL/min/kg.

Turning to `COCCn1c(Cc2cc(F)c(-c3cccc(OCc4ccc(F)cc4F)n3)cc2F)nc2ccc(C(=O)O)cc21` [Example 815], on GLP-1R (setting [2]), the 50% effective concentration (EC50) stood at 2.49 nM. Further, the “Predicted Hepatic Clearance (Pred. Cl.)” value in data set [1] was 1.83 mL/min/kg.

Turning to `N#CCC1(Cn2c(Cc3ccc(-c4ccc(F)c(OCc5ccc(C#N)cc5F)n4)cc3F)nc3ccc(C(=O)O)cc32)CC1` [Example 162, 2-(4-(6-((4-cyano-2-fluorobenzyl)oxy)-5-fluoropyridin-2-yl)-2-fluorobenzyl)-1-((1-(cyanomethyl)cyclopropyl)methyl)-1H-benzo[d]imidazole-6-carboxylic acid], the EC50 at GLP-1R (setting [2]) was found to be 0.17 nM. Moreover, in data set [1], the “Predicted Hepatic Clearance (Pred. Cl.)” value was below 1.83 mL/min/kg.

As to `COCCn1c(Cc2cc(F)c(-c3cccc(OCc4ccc(C5=CCN(C(C)=O)CC5)cc4F)n3)cc2F)nc2ccc(C(=O)O)cc21` [Example 902, 2-(4-(6-((4-(1-acetyl-1,2,3,6-tetrahydropyridin-4-yl)-2-fluorobenzyl)oxy)pyridin-2-yl)-2,5-difluorobenzyl)-1-(2-methoxyethyl)-1H-benzo[d]imidazole-6-carboxylic acid], at GLP-1R (setting [2]), the 50% effective concentration (EC50) worked out at 6.19 nM. Moreover, in data set [1], the “Predicted Hepatic Clearance (Pred. Cl.)” value is 8.67 mL/min/kg.

As for `O=C(O)c1ccc2nc(Cc3ccc(-c4cccc(OCc5ccc(C(F)F)cc5F)n4)cc3F)n(CC34CC(CO3)C4)c2c1` [Example 647], the EC50 at GLP-1R (setting [2]) came out at 3.02 nM. Besides, the “Predicted Hepatic Clearance (Pred. Cl.)” value in data set [1] was 3.5 mL/min/kg.

Turning to `COCCn1c(Cc2cc(F)c(-c3cccc(OCc4cc(C#N)cs4)n3)cc2F)nc2ccc(C(=O)O)cc21` [Example 804], the concentration giving a half-maximal response (EC50) on GLP-1R (setting [2]) amounted to 43.6 nM. The “Predicted Hepatic Clearance (Pred. Cl.)” value in data set [1] was 11.5 mL/min/kg.

On to `COCCn1c(Cc2ccc(-c3cccc(OCc4ccc(F)cc4OC)n3)cc2F)nc2ccc(C(=O)O)cc21` [Example 252, 2-(2-fluoro-4-(6-((4-fluoro-2-methoxybenzyl)oxy)pyridin-2-yl)benzyl)-1-(2-methoxyethyl)-1H-benzo[d]imidazole-6-carboxylic acid], for which the 50% effective concentration (EC50) on GLP-1R (setting [2]) was 3.78 nM. Also, the “Predicted Hepatic Clearance (Pred. Cl.)” value in data set [1] was below 1.83 mL/min/kg.

For `COCCn1c(Cc2cc(F)c(-c3cccc(OCc4ccc(Cl)nc4F)n3)cc2F)nc2ccc(C(=O)O)cc21` [Example 823], the EC50 on GLP-1R (setting [2]) amounted to 19.8 nM. Besides, the “Predicted Hepatic Clearance (Pred. Cl.)” value in data set [1] is 1.83 mL/min/kg.

With `COCCn1c(Cc2cc(F)c(-c3cccc(OCc4ccc(Cl)cc4)n3)cc2F)nc2ccc(C(=O)O)cc21` [Example 602, 2-(4-(6-((4-chlorobenzyl)oxy)pyridin-2-yl)-2,5-difluorobenzyl)-1-(2-methoxyethyl)-1H-benzo[d]imidazole-6-carboxylic acid], the EC50 on GLP-1R (setting [2]) came to 1.17 nM. Besides, the “Predicted Hepatic Clearance (Pred. Cl.)” value in data set [1] is 2.83 mL/min/kg.

As to `COCCn1c(Cc2ccc(-c3cccc(OCc4ccc(C#N)cc4F)n3)cn2)nc2ccc(C(=O)NS(=O)(=O)C3CC3)cc21` [Example 54, 2-((6-((4-cyano-2-fluorobenzyl)oxy)-[2,3′-bipyridin]-6′-yl)methyl)-N-(cyclopropylsulfonyl)-1-(2-methoxyethyl)-1H-benzo[d]imidazole-6-carboxamide], the EC50 at GLP-1R (setting [2]) was 806 nM. The “Predicted Hepatic Clearance (Pred. Cl.)” value in data set [1] was 3.83 mL/min/kg.

For `N#Cc1ccc(COc2cccc(-c3ccc(Cc4nc5ccc(C(=O)O)cc5n4Cc4cocn4)c(F)c3)n2)c(F)c1` [Example 407, 2-(4-(6-((4-cyano-2-fluorobenzyl)oxy)pyridin-2-yl)-2-fluorobenzyl)-1-(oxazol-4-ylmethyl)-1H-benzo[d]imidazole-6-carboxylic acid], at GLP-1R (setting [2]), the EC50 worked out at 4.69 nM. Moreover, the “Predicted Hepatic Clearance (Pred. Cl.)” value in data set [1] is 3.75 mL/min/kg.

For `N#CCC1(Cn2c(Cc3ccc(-c4cccc(OCc5ccc(C#N)cc5F)n4)cc3F)nc3ccc(C(=O)O)nc32)CC1` [Example 600, 2-(4-(6-((4-cyano-2-fluorobenzyl)oxy)pyridin-2-yl)-2-fluorobenzyl)-3-((1-(cyanomethyl)cyclopropyl)methyl)-3H-imidazo[4,5-b]pyridine-5-carboxylic acid], the EC50 on GLP-1R (setting [2]) was determined as 0.1 nM. The “Predicted Hepatic Clearance (Pred. Cl.)” value in data set [1] was 6.7 mL/min/kg.

Consider `CO[C@@H]1CN(C(C)=O)C[C@@H]1n1c(Cc2cc(F)c(-c3cccc(OCc4ccc(C#N)cc4F)n3)cc2F)nc2ccc(C(=O)O)cc21` [Example 919], for which, at GLP-1R, the EC50 was found to be 840 nM. In data set [1], the “Predicted Hepatic Clearance (Pred. Cl.)” value was 4.17 mL/min/kg.

As for `COCCn1c(Cc2ccc(-c3cccc(OCc4nccn4C)n3)cc2F)nc2ccc(C(=O)O)cc21` [Example 512, 2-(2-fluoro-4-(6-((1-methyl-1H-imidazol-2-yl)methoxy)pyridin-2-yl)benzyl)-1-(2-methoxyethyl)-1H-benzo[d]imidazole-6-carboxylic acid], the EC50 at GLP-1R (setting [2]) is 6560 nM. Besides, the “Predicted Hepatic Clearance (Pred. Cl.)” value in data set [1] is 7.67 mL/min/kg.

In the case of `N#Cc1ccc(COc2cccc(-c3cc(F)c(Cc4nc5ccc(C(=O)O)cc5n4CC45CC(C#N)(CO4)C5)cc3F)n2)c(F)c1` [Example 575, 2-(4-(6-((4-cyano-2-fluorobenzyl)oxy)pyridin-2-yl)-2,5-difluorobenzyl)-1-((4-cyano-2-oxabicyclo[2.1.1]hexan-1-yl)methyl)-1H-benzo[d]imidazole-6-carboxylic acid], on GLP-1R (setting [2]), the EC50 was determined as 37.2 nM. In addition, the “Predicted Hepatic Clearance (Pred. Cl.)” value in data set [1] is 8.67 mL/min/kg.
